The record followed here is PubChem BioAssay (NCI).

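Method: 48-hour compound exposure of cells in 96-well plates, five concentrations, linear interpolation of endpoints. GI50: concentration for 50% inhibition of growth. At the TGI there is no net growth.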 Some results are limits rather than exact numbers.

Test systems include NCI-H522 lung; IGROV1 ovarian; SK-OV-3 ovarian; M14 melanoma; CAKI-1 renal; TK-10 renal; MALME-3M melanoma; SW-620 colon; HT29 colon; HCC-2998 colon.
What all share (experiment): DTP human tumour cell line panel, 48 h

With `Cc1ccc(S(=O)(=O)Nc2cccc3[nH]c(C(F)(F)F)nc23)cc1`, the GI50 (usually the concentration at which growth is held to half of that of the control) is 0.15 µM in the assay with NCI-H522 lung; 0.832 µM in the assay with IGROV1 ovarian; 1.34 µM in the assay on SK-OV-3 ovarian; 0.355 µM in the assay on M14 melanoma; 0.337 µM in the assay with CAKI-1 renal; 2.98 µM in the assay with TK-10 renal. The GI50 was 1.95 µM with MALME-3M melanoma, 0.382 µM with SW-620 colon, 0.351 µM in the assay with HT29 colon and 2.89 µM with HCC-2998 colon. For the same molecule, the TGI (as a rule, the concentration at which net growth stops) in the assay with NCI-H522 lung is 0.696 µM; in the assay on IGROV1 ovarian, above 100 µM; with SK-OV-3 ovarian, 25 µM; in the assay with M14 melanoma, 38.6 µM; in the assay on CAKI-1 renal, 24.4 µM; with TK-10 renal it was 61.8 µM. For the same molecule, the TGI in the assay with MALME-3M melanoma is 37.3 µM; in the assay with SW-620 colon it was above 100 µM; with HT29 colon, 7.31 µM; with HCC-2998 colon it was 40.3 µM.

With `CC(C)(O)CC(=O)NCCn1ccc2ncnc(Nc3ccc(Oc4cccc(C(F)(F)F)c4)c(Cl)c3)c21`, the GI50 in the assay on NCI-H522 lung was 0.535 µM; with IGROV1 ovarian, 1.26 µM; in the assay with SK-OV-3 ovarian it was 0.284 µM; with M14 melanoma it was 4.17 µM; in the assay on CAKI-1 renal, 1.8 µM; in the assay on TK-10 renal it was 0.363 µM. Further, the GI50 in the assay with SW-620 colon is 3.32 µM; in the assay on HT29 colon, 3.83 µM; in the assay with HCC-2998 colon, 3.85 µM. Further, the TGI in the assay on NCI-H522 lung, in the assay on IGROV1 ovarian, in the assay with SK-OV-3 ovarian, in the assay with M14 melanoma, in the assay with CAKI-1 renal and in the assay on TK-10 renal was above 10 µM each time. Also, the TGI with MALME-3M melanoma, in the assay with SW-620 colon, in the assay with HT29 colon and in the assay on HCC-2998 colon was above 10 µM in each case.

For `[N-]=[N+]=NC(CI)c1cn([C@H]2C[C@H](O)[C@@H](CO)O2)c(=O)[nH]c1=O` (some centres not stated), the TGI with NCI-H522 lung, with IGROV1 ovarian, in the assay on SK-OV-3 ovarian, in the assay on M14 melanoma, in the assay on CAKI-1 renal and in the assay with TK-10 renal was above 100 µM in each case. For the same molecule, the total growth inhibition concentration (TGI) in the assay with MALME-3M melanoma, in the assay on SW-620 colon, with HT29 colon and in the assay on HCC-2998 colon was above 100 µM in each case.

On to `CN(C)c1ccc2c(c1)OC(N)=C(C#N)C2c1ccc2c(c1)CCO2` (configuration not stated), for which the GI50 in the assay with NCI-H522 lung was below 0.0239 µM; with IGROV1 ovarian, 0.326 µM; in the assay with SK-OV-3 ovarian it was 0.224 µM; in the assay with M14 melanoma, 0.0417 µM; in the assay on CAKI-1 renal, 0.147 µM; in the assay with TK-10 renal it was 15.9 µM. Also, the GI50 with MALME-3M melanoma was 14.9 µM; with SW-620 colon, below 0.0294 µM; in the assay on HT29 colon, 0.321 µM; in the assay with HCC-2998 colon, 0.469 µM. The TGI was above 100 µM in the assay on IGROV1 ovarian; above 73.9 µM in the assay with SK-OV-3 ovarian; 11.4 µM in the assay with M14 melanoma; above 100 µM with CAKI-1 renal; above 100 µM with TK-10 renal; 59.7 µM with MALME-3M melanoma. Besides, the total growth inhibition concentration (TGI) in the assay on SW-620 colon and in the assay on HCC-2998 colon was above 100 µM throughout.

`CC(C)c1cccc2sc(NC(=O)C(=O)C(C#N)c3cccc4ccccc34)nc12` (configuration not stated): the TGI in the assay on NCI-H522 lung, with IGROV1 ovarian, in the assay on SK-OV-3 ovarian, in the assay on M14 melanoma, with CAKI-1 renal and in the assay with TK-10 renal was above 100 µM throughout. Besides, the total growth inhibition concentration (TGI) with MALME-3M melanoma, in the assay on SW-620 colon, in the assay with HT29 colon and in the assay with HCC-2998 colon was above 100 µM each time.

`Nc1[nH]nc2nc(-c3cccs3)cc(C(F)(F)F)c12`: the GI50 with NCI-H522 lung is above 13.9 µM; in the assay on IGROV1 ovarian it was above 25 µM; in the assay with SK-OV-3 ovarian it was above 25 µM; with M14 melanoma it was above 25 µM; with CAKI-1 renal, above 20.3 µM; with TK-10 renal, above 19.2 µM. The GI50 in the assay on MALME-3M melanoma, in the assay with SW-620 colon, in the assay on HT29 colon and with HCC-2998 colon was above 25 µM each time. The TGI with NCI-H522 lung, with IGROV1 ovarian, in the assay on SK-OV-3 ovarian, with M14 melanoma, with CAKI-1 renal and with TK-10 renal was above 25 µM each time. In addition, the TGI in the assay with MALME-3M melanoma, with SW-620 colon, in the assay on HT29 colon and in the assay with HCC-2998 colon was above 25 µM throughout.

Turning to `O=c1c2ccccc2nc(-c2ccccc2)n1NC1OC(CO)C(O)C(O)C1O` (configuration not stated), the TGI in the assay with NCI-H522 lung, with IGROV1 ovarian, with SK-OV-3 ovarian, in the assay on M14 melanoma, in the assay with CAKI-1 renal and in the assay with TK-10 renal was above 100 µM throughout. For the same molecule, the TGI with MALME-3M melanoma, in the assay on SW-620 colon, in the assay with HT29 colon and in the assay with HCC-2998 colon was above 100 µM throughout.

As to `O=CN/C=C/c1ccc(O)c(O)c1`, the TGI with NCI-H522 lung, in the assay on IGROV1 ovarian, in the assay on SK-OV-3 ovarian, in the assay with M14 melanoma, with CAKI-1 renal and in the assay with TK-10 renal was above 100 µM each time. Besides, the TGI in the assay on MALME-3M melanoma, in the assay with SW-620 colon, with HT29 colon and in the assay on HCC-2998 colon was above 100 µM each time.

On to `COc1c2c(nc3ccccc13)-c1cc3c(c(=O)n1C2)COC(=O)C3(O)CC(=O)N1CCOCC1` (configuration not stated), for which the TGI was 31.4 µM in the assay with NCI-H522 lung; 98.7 µM in the assay on IGROV1 ovarian; 68.3 µM with SK-OV-3 ovarian; 41.4 µM in the assay with M14 melanoma; 54 µM in the assay on CAKI-1 renal; above 100 µM in the assay on TK-10 renal. Also, the TGI with MALME-3M melanoma is above 100 µM; in the assay with SW-620 colon, above 100 µM; in the assay on HT29 colon, 68 µM; in the assay on HCC-2998 colon, 75.8 µM.

Turning to `Cc1ccc(Nc2nc(C)c(C(/C=C/c3ccc(/C=C/C(=N/NC(=O)C[n+]4ccccc4)c4sc(Nc5ccc(C)cc5[N+](=O)[O-])nc4C)cc3)=N\NC(=O)C[n+]3ccccc3)s2)c([N+](=O)[O-])c1`, the total growth inhibition concentration (TGI) in the assay with NCI-H522 lung, in the assay with IGROV1 ovarian, in the assay on SK-OV-3 ovarian, in the assay on M14 melanoma, with CAKI-1 renal and in the assay on TK-10 renal was above 100 µM in each case. In addition, the TGI in the assay with MALME-3M melanoma, in the assay on SW-620 colon, in the assay with HT29 colon and in the assay on HCC-2998 colon was above 100 µM in each case.
